Measured values as given in patent US8133909B2 (Hoffmann-La Roche Inc., priority 2008, dated 2012).

What follows are compounds tested against T1, human orexin-2 (hOX2) receptors (Homo sapiens, UniProt O43614) (assay: Intracellular Ca2+ mobilization assay (FLIPR), antagonism of orexin-A). Details: CHO(dHFr-) cells stably expressing hOX2; orexin-A at EC80 as agonist; antagonist applied 25 min before; Kb=IC50/(1+[A]/EC50); read-out: Kb (μM) OX2R (human).
T1 construct: expressed in transfected cells
T1 sequence (O43614 1-444): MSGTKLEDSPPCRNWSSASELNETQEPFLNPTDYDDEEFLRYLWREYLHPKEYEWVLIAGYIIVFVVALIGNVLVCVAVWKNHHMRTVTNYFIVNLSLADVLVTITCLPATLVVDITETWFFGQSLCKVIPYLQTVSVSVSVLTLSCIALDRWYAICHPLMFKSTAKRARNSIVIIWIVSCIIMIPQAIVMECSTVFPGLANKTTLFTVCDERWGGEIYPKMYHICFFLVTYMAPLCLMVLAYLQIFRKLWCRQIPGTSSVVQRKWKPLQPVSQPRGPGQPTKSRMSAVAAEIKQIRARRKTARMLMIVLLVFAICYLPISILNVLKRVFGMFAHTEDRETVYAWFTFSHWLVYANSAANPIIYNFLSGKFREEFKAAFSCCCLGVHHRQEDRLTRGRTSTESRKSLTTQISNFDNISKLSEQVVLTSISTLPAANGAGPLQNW
Assay type: cell-based
Description: Intracellular Ca^2+ Mobilization Assay
The Chinese Hamster Ovary (dHFr—) mutant cell line stably expressing human orexin-1 (hOX1) or human orexin-2 (hOX2) receptors were maintained in Dulbecco's Modified Eagle Medium (1X) with GlutaMax™ 1, 4500 mg/L D-Glucose and Sodium Pyruvate (Catalog No. 31966-021, Invitrogen, Carlsbad, Calif.), 5% dialyzed fetal calf serum (Catalog No. 26400-044), 100 μg/ml penicillin and 100 μg/ml streptomycin. The cells were seeded at 5×10^4 cells/well in the poly-D-lysine treated, 96-well, black/clear-bottomed plates (Catalog No. BD356640, BD Biosciences, Palo Alto, Calif.). 24 h later, the cells were loaded for 1 h at 37° C. with 4 μM Flou-4 acetoxymethyl ester (Catalog No. F-14202, Molecular Probes, Eugene, Oreg.) in FLIPR buffer (1×HBSS, 20 mM HEPES, 2.5 mM Probenecid). Hanks' Balanced Salt Solution (HBSS) (10×) (catalog No. 14065-049) and HEPES (1M) (catalog No. 15630-056) were purchased from Invitrogen, Carlsbad, Calif. Probenecid (250 mM) (catalog No. P8761) was from Sigma, Buchs, Switzerland. The cells were washed five times with FLIPR buffer to remove excess dye and intracellular calcium mobilization, [Ca^2+]i were measured using a Fluorometric Imaging Plate Reader (FLIPR-96, Molecular Devices, Menlo Park, Calif.) as described previously (Malherbe et al., Mol. Pharmacol., 64, 823-832, 2003). Orexin A (catalog No. 1455, Toris Cookson Ltd, Bristol, UK) was used as agonist. Orexin A (50 mM stock solution in DMSO) was diluted in FLIPR buffer +0.1% BSA. The EC50 and EC80 values of orexin-A were measured daily from standard agonist concentration-response curves in CHO(dHFr—)—OX1R and —OX2R cell lines. All compounds were dissolved in 100% DMSO. Inhibition curves were determined by addition of 11 concentrations (0.0001-10 μM) of inhibitory compounds and using EC80 value of orexin-A as agonist (a concentration which gave 80% of max agonist response, determined daily). The antagonists were applied 25 min (incubation at 37° C.) before the application of the agonist. Responses were measured as peak increase in fluorescence minus basal, normalized to the maximal stimulatory effect induced by EC80 value of orexin-A or orexin- B. Inhibition curves were fitted according to the Hill equation: y=100/(1+(x/IC50)^nH), where nH=slope factor using Excel-fit 4 software (Microsoft). Kb values were calculated according to the following equation Kb=IC50/(1+[A]/EC50) where A is the concentration of agonist added which is very close to agonist EC80 value, and IC50 and EC50 values were derived from the antagonist inhibition and orexin-A or B agonist curves, respectively.

Kb	Compound
0.0017 µM	COc1ccc(N(CCc2ccc(C(F)(F)F)nc2)C(=O)[C@@H](NC(=O)[C@@H](N)c2ccccc2)c2ccccc2)cc1OC [Example 4, (S)-2-((S)-2-Amino-2-phenyl-acetylamino)-N-(3,4-dimethoxy-phenyl)-2-phenyl-N-[2(6-trifluoromethyl-pyridin-3-yl)-ethyl]-acetamide]
0.0241 µM	Cc1ccc(N(CCc2ccc(C(F)(F)F)nc2)C(=O)[C@@H](O)c2ccccc2)cc1 [Example 15, (S)-2-Hydroxy-2-phenyl-N-p-tolyl-N-[2-(6-trifluoromethyl-pyridin-3-yl)-ethyl]-acetamide]
0.0785 µM	Cc1cc(N(CCc2ccc(C(F)(F)F)cc2)C(=O)C(O)c2ccccc2)n(C)n1 (racemic) [Example 42, (R,S)—N-(2,5-Dimethyl-2H-pyrazol-3-yl)-2-hydroxy-2-phenyl-N-[2-(4-trifluoromethyl-phenyl)-ethyl]-acetamide]
0.0025 µM	Cc1ccc(N(CCc2ccc(C(F)(F)F)nc2)C(=O)[C@@H](O)c2ccccc2)cc1C [Example 2, (S)—N-(3,4-Dimethyl-phenyl)-2-hydroxy-2-phenyl-N-[2-(6-trifluoromethyl-pyridin-3-yl)-ethyl]-acetamide]
0.0146 µM	COc1ccc(N(CCc2ccc(C(F)(F)F)cn2)C(=O)C(O)c2ccc(F)cc2)cc1C (racemic) [Example 93, (R,S)-2-(4-Fluoro-phenyl)-2-hydroxy-N-(4-methoxy-3-methyl-phenyl)-N-[2-(5-trifluoromethyl-pyridin-2-yl)-ethyl]-acetamide]
0.0439 µM	Cc1cc(N(CCc2ccc(C(F)(F)F)cc2)C(=O)C(N)c2ccc(Cl)cc2)n(C)n1 (racemic) [Example 39, (R,S)-2-Amino-2-(4-chloro-phenyl)-N-(2,5-dimethyl-2H-pyrazol-3-yl)-N-[2-(4-trifluoromethyl-phenyl)-ethyl]-acetamide]
0.0438 µM	O=C(C(O)c1ccc(F)cc1)N(CCc1ccc(C(F)(F)F)cn1)c1ccc(F)c(CO)c1 (racemic) [Example 90, (R,S)—N-(4-Fluoro-3-hydroxymethyl-phenyl)-2-(4-fluoro-phenyl)-2-hydroxy-N-[2-(5-trifluoromethyl-pyridin-2-yl)-ethyl]-acetamide]
0.0839 µM	Cc1ccc(N(CCc2ccc(C(F)(F)F)nc2)C(=O)[C@@H](C)c2ccccc2)cc1C [Example 24, (S)—N-(3,4-Dimethyl-phenyl)-2-phenyl-N-[2-(6-trifluoromethyl-pyridin-3-yl)-ethyl]-propionamide]
0.0116 µM	O=C([C@@H](O)c1ccc(F)cc1)N(CCc1ccc(C(F)(F)F)nc1)c1ccc2c(c1)C(O)CCO2 (single isomer, unassigned) [Example 101, (S)-2-(4-Fluoro-phenyl)-2-hydroxy-N—((R or S)-4-hydroxy-chroman-6-yl)-N-[2-(6-trifluoromethyl-pyridin-3-yl)-ethyl]-acetamide]
0.0943 µM	Cc1ccc(CCN(C(=O)C(N)c2ccc(Cl)cc2)c2sc(C)nc2C)cc1 (racemic) [Example 32, (R,S)-2-Amino-2-(4-chloro-phenyl)-N-(2,4-dimethyl-thiazol-5-yl)-N-(2-p-tolyl-ethyl)-acetamide]
0.0195 µM	Cc1ccc(N(CCc2ccc(C(F)(F)F)cn2)C(=O)C(O)c2ccc(F)cc2)cc1OC(F)F (racemic) [Example 95, (R,S)-N-(3-Difluoromethoxy-4-methyl-phenyl)-2-(4-fluoro-phenyl)-2-hydroxy-N-[2-(5-trifluoromethyl-pyridin-2-yl)-ethyl]-acetamide]
0.0075 µM	Cc1cc(N(CCc2ccc(C(F)(F)F)cn2)C(=O)C(O)c2ccc(F)cc2)ccc1F (racemic) [Example 77, (R,S)—N-(4-Fluoro-3-methyl-phenyl)-2-(4-fluoro-phenyl)-2-hydroxy-N-[2-(5-trifluoromethyl-pyridin-2-yl)-ethyl]-acetamide]
0.0116 µM	O=C([C@@H](O)c1ccc(F)cc1)N(CCc1ccc(C(F)(F)F)nc1)c1ccc2c(c1)C(O)CCO2 (single isomer, unassigned) [Example 102, (S)-2-(4-Fluoro-phenyl)-2-hydroxy-N-((S or R)-4-hydroxy-chroman-6-yl)-N-[2-(6-trifluoromethyl-pyridin-3-yl)-ethyl]-acetamide]
0.0053 µM	O=C([C@@H](O)c1ccc(F)cc1)N(CCc1ccc(C(F)(F)F)nc1)c1ccc2c(c1)CCCC2 [Example 60, (S)-2-(4-Fluoro-phenyl)-2-hydroxy-N-(5,6,7,8-tetrahydro-naphthalen-2-yl)-N-[2-(6-trifluoromethyl-pyridin-3-yl)-ethyl]-acetamide]
0.011 µM	O=C([C@@H](O)c1ccccc1)N(CCc1ccc(C(F)(F)F)nc1)c1ccc2c(c1)CCCO2 [Example 62]
0.0046 µM	Cc1nn(C)c2ccc(N(CCc3ccc(C(F)(F)F)nc3)C(=O)[C@@H](O)c3ccc(F)cc3)cc12 [Example 107, (S)—N-(1,3-Dimethyl-1H-indazol-5-yl)-2-(4-fluoro-phenyl)-2-hydroxy-N-[2-(6-trifluoromethyl-pyridin-3-yl)-ethyl]-acetamide]
0.0167 µM	(S)-2-Hydroxy-N-(3-methoxy-phenyl)-2-phenyl-N-[2-(6-trifluoromethyl-pyridin-3-yl)-ethyl]-acetamide [Example 58]
0.0057 µM	Cc1ccc(N(CCc2ccc(Cl)cn2)C(=O)[C@@H](O)c2ccccc2)cc1C [Example 66, (S)—N-[2-(5-Chloro-pyridin-2-yl)-ethyl]-N-(3,4-dimethyl-phenyl)-2-hydroxy-2-phenyl-acetamide]
0.0142 µM	O=C([C@@H](O)c1ccccc1)N(CCc1ccc(C(F)(F)F)nc1)c1ccc2c(c1)OCCO2 [Example 55, (S)—N-(2,3-Dihydro-benzo[1,4]dioxin-6-yl)-2-hydroxy-2-phenyl-N-[2-(6-trifluoromethyl-pyridin-3-yl)-ethyl]-acetamide]
0.0006 µM	N[C@H](C(=O)N(CCc1ccc(C(F)(F)F)nc1)c1ccc2c(c1)CCCC2)c1ccccc1 [Example 9, (S)-2-Amino-2-phenyl-N-(5,6,7,8-tetrahydro-naphthalen-2-yl)-N-[2-(6-trifluoromethyl-pyridin-3-yl)-ethyl]-acetamide]
0.0289 µM	Cc1ccc(N(CCc2ccc(C(F)(F)F)cn2)C(=O)[C@@H](O)c2ccc(F)cc2)cc1F [Example 80, (S)—N-(3-Fluoro-4-methyl-phenyl)-2-(4-fluoro-phenyl)-2-hydroxy-N-[2-(5-trifluoromethyl-pyridin-2-yl)-ethyl]-acetamide]
0.026 µM	COc1cccc(N(CCc2ccc(C(F)(F)F)cn2)C(=O)C(O)c2ccc(F)cc2)c1 (racemic) [Example 76, (R,S)-2-(4-Fluoro-phenyl)-2-hydroxy-N-(3-methoxy-phenyl)-N-[2-(5-trifluoromethyl-pyridin-2-yl)-ethyl]-acetamide]
0.0239 µM	O=C(C(O)c1ccc(F)cc1)N(CCc1ccc(C(F)(F)F)cn1)c1ccc(Cl)c(OC2CC2)c1 (racemic) [Example 103, (R,S)—N-(4-Chloro-3-cyclopropoxy-phenyl)-2-(4-fluoro-phenyl)-2-hydroxy-N-[2-(5-trifluoromethyl-pyridin-2-yl)-ethyl]-acetamide]
0.0146 µM	COc1cc(N(CCc2ccc(C(F)(F)F)cn2)C(=O)[C@@H](O)c2ccc(F)cc2)ccc1F [Example 92, (S)—N-(4-Fluoro-3-methoxy-phenyl)-2-(4-fluoro-phenyl)-2-hydroxy-N-[2-(5-trifluoromethyl-pyridin-2-yl)-ethyl]-acetamide]
